Assay results reported in US10092506B2, “Encapsulation of lipophilic or amphiphilic therapeutic agents in nano-emulsion” (COMMISSARIAT A L'ENERGIE ATOMIQUE ET AUX ENERGIES …, priority 2008, dated 2018).

Assays:
[1] = fluorescence quantum yield with reference to Nile Blue perchlorate in ethanol; format: physicochemical; conditions: in toluene
Protocol: The fluorescence quantum yield of various photosensitizers formulated in a nano-emulsion and in solvent was measured with reference to Nile Blue perchlorate in ethanol, λexc 605 nm (Fref=0.27).

[2] = physico-chemical behaviour of taxol under nano-emulsion preparation and analysis conditions; format: physicochemical; conditions: after ultrasound, heat treatment (4 h at 60° C.) and analytical conditions (acetonitrile/water mixture)

SMILES	Fluorescence quantum yield F [1]	degradation of taxol [2]
C1=Cc2nc1c(-c1ccccc1)c1ccc([nH]1)c(-c1ccccc1)c1nc(c(-c3ccccc3)c3ccc([nH]3)c2-c2ccccc2)CC1 [mTPC, meso-tetraphenylchlorine]	0.38	–
CC(=O)O[C@H]1C(=O)[C@@]2(C)[C@H]([C@H](OC(=O)c3ccccc3)[C@]3(O)C[C@H](OC(=O)[C@H](O)[C@@H](NC(=O)c4ccccc4)c4ccccc4)C(C)=C1C3(C)C)[C@]1(OC(C)=O)CO[C@@H]1C[C@@H]2O [paclitaxel]	–	absence of degradation
